{"source": "paper PMC9794833", "about": "“Ligand recognition and activation of neuromedin U receptor 2” (Nature Communications, 2022)", "assay_type_in_all_cases": "cell-based", "key": {"[1]": {"biological_target": "T1, NMU2 A302H (Homo sapiens, UniProt Q9GZQ4, A302H)", "T1 construct": "HA signal peptide (N); expressed in transfected cells; host or cells: HEK 293F", "T1 sequence (Q9GZQ4 whole entry A302H)": "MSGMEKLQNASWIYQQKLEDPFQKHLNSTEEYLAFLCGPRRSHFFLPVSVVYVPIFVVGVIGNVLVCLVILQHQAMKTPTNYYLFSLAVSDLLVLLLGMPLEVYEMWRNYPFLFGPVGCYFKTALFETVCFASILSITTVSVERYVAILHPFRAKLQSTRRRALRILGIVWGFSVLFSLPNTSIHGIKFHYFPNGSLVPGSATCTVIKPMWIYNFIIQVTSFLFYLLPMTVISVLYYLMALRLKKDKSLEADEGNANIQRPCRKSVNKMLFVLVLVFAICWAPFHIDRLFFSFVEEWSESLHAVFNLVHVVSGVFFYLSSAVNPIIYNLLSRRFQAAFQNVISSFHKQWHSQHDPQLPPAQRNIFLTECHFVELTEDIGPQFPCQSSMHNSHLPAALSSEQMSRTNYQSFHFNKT", "test": "TRUPATH assay, NMU2 mutant A302H", "protocol": "(§1) The plasmids of Gαi1, Gβ3, and Gγ9 used for the TRUPATH assay were purchased from Addgene (TRUPATH Kit, #1000000163). NMU2 constructs of WT and mutants were constructed into a PTT5 vector (Invitrogen) with an N-terminal HA signal peptide followed by a Flag tag. HEK 293F cells were transiently transfected with WT or mutants of NMU2, Gαi1, Gβ3, and Gγ9 at an […] ratio of 4:1:1:1 with a total of 3500 ng plasmid DNA using a transfection reagent (PEI MAX 2000, Polysciences) and cultivated at 37 °C with 5 % CO2. Cells were collected after 48-h transfection. The expression level of the receptor was measured by incubating 10 μl cells with 15 μl TBS buffer supplemented with 4% bovine serum albumin, 20% (v/v) viability staining solution7-AAD (Invitrogen, Cat#00-6993-50), and ANTI-FLAG M2-FITC antibody (Sigma, F4049; 1:100 diluted by TBS) at 4 °C for 20 min. After incubation, 175 μl TBS buffer was added, and the fluorescence signal on the cell surface was detected by an FCM (flow cytometry) reader (Millipore). The cells were diluted with 1× HBSS (Hank’s balanced salt solution) balanced buffer supplemented with 25 mM HEPES, pH 7.4, and seeded onto the 96-well opaque cell culture plates (Beyotime) at a density of 18,000 cells per well by 60 μl. Freshly prepared 50 μM coelenterazine 400a (Nanolight Technologies) was added into the well by 10 μl. After a 5 min equilibration time in the darkness, plates were then read in a Synerg^TM H1 microplate reader (BioTek) with excitation at 395 nm and emission at 410 and 515 nm by serially three times. Then, 30 μl of 3.3× agonists were added into the wells with a gradient final concentration from 10^−4–10^−13 M. Plates were read immediately again by serially five times. Data were processed and analyzed following the method in the literature by using GraphPad Prism 8.0."}, "[2]": {"biological_target": "T2, NMU2 F131L (Homo sapiens, UniProt Q9GZQ4, F131L)", "T2 construct": "HA signal peptide (N); expressed in transfected cells; host or cells: HEK 293F, transient transfection, PTT5 vector", "T2 sequence (Q9GZQ4 whole entry F131L)": "as the sequence (Q9GZQ4 whole entry A302H) above, with F131L, H302A counted along it", "test": "IP accumulation assay, NMU2 mutant F131L", "conditions": "IP accumulation", "protocol": "NMU2 constructs of WT and mutants were constructed into PTT5 vector (Invitrogen), as mentioned above. HEK 293F cells were transiently transfected with WT or mutants with total of 2000 ng plasmid DNA using transfection reagent (PEI MAX 2000, Polysciences) and cultivated at 37 °C with 5% CO2. Cells were collected after 48-h transfection. IP accumulation was tested by IP-One Gq assay kit (Cisbio Bioassays, 62IPAPEJ) following the instruction manual. In general, cells were resuspended with 1× HBSS buffer containing 20 mM LiCl (stimulation buffer) and seeded into the white 384-well microplates (Proxi Plate^TM-384 Plus, PerkinElmer) with a density of 20,000 per well. Cells were preincubated with 10^−5 M R-PSOP (provided by Boehringer Ingelheim company, Germany) and gradient concentration from 10^−4 to 10^−11 M of NMU-25 or gradient concentration 10^−4 to 10^−11 M of NMU-25 alone in stimulation buffer at 37 °C for 90 min. The cryptate-labeled anti-IP1 monoclonal antibody and d2-labeled IP1 were diluted with lysis & detection buffer (1:20) and added to each well by 3 μl, respectively. The plates were incubated at room temperature for 60 minutes and then read in a Synerg^TM H1 microplate reader (BioTek) with excitation at 330 nm and emission at 620 and 665 nm. The IP1 production was calculated by a standard dose–response curve and analyzed by GraphPad Prism 8.0."}, "[3]": {"biological_target": "T3, NMU2 F305A (Homo sapiens, UniProt Q9GZQ4, F305A)", "T3 construct": "HA signal peptide (N); expressed in transfected cells; host or cells: HEK 293F", "T3 sequence (Q9GZQ4 whole entry F305A)": "as the sequence (Q9GZQ4 whole entry A302H) above, with H302A, F305A counted along it", "test": "TRUPATH assay, NMU2 mutant F305A", "protocol": "as §1"}, "[4]": {"biological_target": "T4, NMU2 F126A (Homo sapiens, UniProt Q9GZQ4, F126A)", "T4 construct": "HA signal peptide (N); expressed in transfected cells; host or cells: HEK 293F", "T4 sequence (Q9GZQ4 whole entry F126A)": "as the sequence (Q9GZQ4 whole entry A302H) above, with F126A, H302A counted along it", "test": "TRUPATH assay, NMU2 mutant F126A", "protocol": "as §1"}, "[5]": {"conditions": "read-out: pEC50 mean±SEM (converted)"}}, "note": "Where “and” joins values, the source holds several entries; their conditions need not be identical. Equal values may be shown once. Read-outs that look alike come from different tables or passages of the source. Where no end group is shown, it is not given here."}
{"substance": "FRVDEEFQSPFASQSRGYFLFRPRN-NH2 [NmU-25]", "values": [{"measurement": "EC50 ratio EC50(mutant)/EC50(WT)", "setting": "[1]", "value": 5}, {"measurement": "Span (window between Emax and minimal agonist response)", "setting": "[1]", "value": "97±11 % of WT"}, {"measurement": "G protein activation (TRUPATH), dose-response point", "setting": "[1]; Log [agonist] M -4", "value": "97.2233 and 94.5294"}, {"measurement": "G protein activation (TRUPATH), dose-response point", "setting": "[1]; Log [agonist] M -6", "value": "58.8982 and 69.5076 and 54.0633"}, {"measurement": "ΔpEC50 (from WT)", "setting": "[1]; individual experiments", "value": "-0.7587 and -0.754 and -0.956"}, {"measurement": "EC50", "setting": "[1]; read-out: EC50", "value": 162, "unit": "nM"}, {"measurement": "EC50", "setting": "[1]; [5]", "value": 162, "unit": "nM"}, {"measurement": "EC50", "setting": "[2]; read-out: EC50, NmU-25 alone", "value": 11, "unit": "nM"}, {"measurement": "EC50", "setting": "[2]; read-out: pEC50±SEM, NmU-25 alone (converted)", "value": 10.7, "unit": "nM"}, {"measurement": "EC50 ratio EC50(mutant)/EC50(WT)", "setting": "[3]", "value": 77}, {"measurement": "Span (window between Emax and minimal agonist response)", "setting": "[3]", "value": "95±11 % of WT"}, {"measurement": "G protein activation (TRUPATH), dose-response point", "setting": "[3]; Log [agonist] M -4", "value": "46.0579 and 58.1697 and 76.8594 and 61.8818"}, {"measurement": "ΔpEC50 (from WT)", "setting": "[3]; individual experiments", "value": "-2.165 and -2.457 and -1.8628 and -2.734"}, {"measurement": "Emax", "setting": "[3]; peer review file", "value": 83, "unit": "%"}, {"measurement": "potency reduction", "setting": "[3]; peer review file", "value": 33, "unit": "fold"}, {"measurement": "EC50", "setting": "[3]; read-out: EC50", "value": 2600, "unit": "nM"}, {"measurement": "EC50", "setting": "[3]; [5]", "value": 2630, "unit": "nM"}, {"measurement": "EC50 ratio EC50(mutant)/EC50(WT)", "setting": "[4]", "value": 18}, {"measurement": "Span (window between Emax and minimal agonist response)", "setting": "[4]", "value": "27±10 % of WT"}, {"measurement": "G protein activation (TRUPATH), dose-response point", "setting": "[4]; Log [agonist] M -4", "value": "26.6728 and 20.7775"}, {"measurement": "ΔpEC50 (from WT)", "setting": "[4]; individual experiments", "value": "-2.148 and -1.125 and -1.6853"}, {"measurement": "EC50", "setting": "[4]; read-out: EC50", "value": 625, "unit": "nM"}, {"measurement": "EC50", "setting": "[4]; [5]", "value": 631, "unit": "nM"}]}
